The record followed here is US10308637B2 (LifeSci Pharmaceuticals, Inc., priority 2015, dated 2019).

The term EC50 denotes the midpoint of the concentration-response curve. A lower EC50 goes with higher potency in that assay.

This assay is described as follows: Contact Assay (percentage inhibition from fluorescence intensity). In kind it is biochemical. On the procedure:
The percentage inhibition was calculated using the following equation:
[formula] where, Mean(BG) is the average value of the fluorescence intensity of the background wells and Mean(PC) is the average value of the fluorescence intensity of the positive control wells.
Table 4 provides the EC50 values of various compounds disclosed herein.
With `Cc1cnc2c(S(C)(=O)=O)cc(Cc3cc(C(=O)NCc4c(C)cc(N)nc4C)ccn3)cc2c1` [Example 15, N-((6-amino-2,4-dimethylpyridin-3-yl)methyl)-2-((3-methyl-8-(methylsulfonyl)quinolin-6-yl)methyl)isonicotinamide], the EC50 is ≤ 0.1 µM.
For `Cc1cnc2c(S(C)(=O)=O)cc(Cc3cc(C(=O)NCc4ccc5c(N)nccc5c4)ccn3)cc2c1` [Example 16, N-((1-aminoisoquinolin-6-yl)methyl)-2-((3-methyl-8-(methylsulfonyl)quinolin-6-yl)methyl)isonicotinamide] the value was ≤ 0.1 µM; for `Cc1cnc2c(S(C)(=O)=O)cc(Cc3cc(C(=O)NCc4cc5c(Cl)c[nH]c5cc4F)ccn3)cc2c1` [Example 17, N-((3-chloro-6-fluoro-1H-indol-5-yl)methyl)-2-((3-methyl-8-(methylsulfonyl)quinolin-6-yl)methyl)isonicotinamide], ≤ 0.1 µM.
Under `Cc1cnc2c(S(C)(=O)=O)cc(Cc3cc(C(=O)NCc4cc5cc[nH]c5cc4F)ccn3)cc2c1` [Example 18, N-((6-fluoro-1H-indol-5-yl)methyl)-2-((3-methyl-8-(methylsulfonyl)quinolin-6-yl)methyl)isonicotinamide] stands 0.1 to 1 µM; under `Cc1cnc2c(S(C)(=O)=O)cc(Cc3cc(C(=O)NCc4n[nH]c5ccc(Cl)cc45)ccn3)cc2c1` [Example 20, N-((5-chloro-1H-indazol-3-yl)methyl)-2-((3-methyl-8-(methylsulfonyl)quinolin-6-yl)methyl)isonicotinamide], ≤ 0.1 µM.
For `Cc1cnc2c(S(C)(=O)=O)cc(Cc3cc(C(=O)NCc4ccc5[nH]cc(Cl)c5c4F)ccn3)cc2c1` [Example 21, N-((3-chloro-4-fluoro-1H-indol-5-yl)methyl)-2-((3-methyl-8-(methylsulfonyl)quinolin-6-yl)methyl)isonicotinamide] the value was ≤ 0.1 µM.
`Cc1nc(N)ccc1CNC(=O)c1ccnc(Cc2ccc3ncc(Cl)cc3c2)c1` [Example 34, N-((6-amino-2-methylpyridin-3-yl)methyl)-2-((3-chloroquinolin-6-yl)methyl)isonicotinamide]: the EC50 is ≤ 0.1 µM.
Under `Cc1cc(N)nc(C)c1CNC(=O)c1ccnc(Cc2ccc3ncc(Cl)cc3c2)c1` [Example 35, N-((6-amino-2,4-dimethylpyridin-3-yl)methyl)-2-((3-chloroquinolin-6-yl)methyl)isonicotinamide] stands ≤ 0.1 µM; under `O=C(NCc1cnc2[nH]cc(Cl)c2c1)c1ccnc(Cc2ccc3ncc(Cl)cc3c2)c1` [Example 38, N-(3-Chloro-1H-pyrrolo[2,3-b]pyridin-5-ylmethyl)-2-(3-chloro-quinolin-6-ylmethyl)-isonicotinamide], 0.1 to 1 µM.
For `O=C(NCc1ccc2[nH]cc(Cl)c2c1F)c1ccnc(Cc2ccc3ncc(Cl)cc3c2)c1` [Example 40, N-(3-Chloro-4-fluoro-1H-indol-5-ylmethyl)-2-(3-chloro-quinolin-6-ylmethyl)-isonicotinamide] the value was 0.1 to 1 µM; for `N#Cc1cc(Cc2cc(C(=O)NCc3ccc4c(N)nccc4c3)ccn2)cc2cc(Cl)cnc12` [Example 57, N-(1-amino-isoquinolin-6-ylmethyl)-2-(3-chloro-8-cyano-quinolin-6-ylmethyl)-isonicotinamide], 0.1 to 1 µM.
For the compound `NC(=O)c1cc(Cc2cc(C(=O)NCc3n[nH]c4ccc(Cl)cc34)ccn2)cc2cc(Cl)cnc12` [Example 60, 3-chloro-6-((4-(((5-chloro-1H-indazol-3-yl)methyl)carbamoyl)pyridin-2-yl)methyl)quinoline-8-carboxamide], the EC50 was in the range of 0.1 to 1 µM.
Under `NC(=O)c1cc(Cc2cc(C(=O)NCc3cnc4[nH]cc(Cl)c4c3)ccn2)cc2cc(Cl)cnc12` [Example 61, 3-chloro-6-((4-(((3-chloro-1H-pyrrolo[2,3-b]pyridin-5-yl)methyl)carbamoyl)pyridin-2-yl)methyl)quinoline-8-carboxamide] stands 0.1 to 1 µM.
For `Cc1nc(N)ccc1CNC(=O)c1ccnc(Cc2cc(C(N)=O)c3ncc(Cl)cc3c2)c1` [Example 62, 6-((4-(((6-amino-2-methylpyridin-3-yl)methyl)carbamoyl)pyridin-2-yl)methyl)-3-chloroquinoline-8-carboxamide] the value was ≤ 0.1 µM.
For `NC(=O)c1cc(Cc2cc(C(=O)NCc3ccc4c(N)nccc4c3)ccn2)cc2cc(Cl)cnc12` [Example 64, 6-((4-(((1-aminoisoquinolin-6-yl)methyl)carbamoyl)pyridin-2-yl)methyl)-3-chloroquinoline-8-carboxamide] the value was ≤ 0.1 µM.
Take `NC(=O)c1cc(Cc2cc(C(=O)NCc3ccc4[nH]cc(Cl)c4c3F)ccn2)cc2cc(Cl)cnc12` [Example 65, 3-chloro-6-((4-(((3-chloro-4-fluoro-1H-indol-5-yl)methyl)carbamoyl)pyridin-2-yl)methyl)quinoline-8-carboxamide]: the EC50 was ≤ 0.1 µM.
Under `NC(=O)c1cc(Cc2cc(C(=O)NCc3cc4cc[nH]c4cc3F)ccn2)cc2cc(Cl)cnc12` [Example 66, 3-chloro-6-((4-(((6-fluoro-1H-indol-5-yl)methyl)carbamoyl)pyridin-2-yl)methyl)quinoline-8-carboxamide] stands 0.1 to 1 µM; under `Cc1cc(N)nc(C)c1CNC(=O)c1ccnc(Cc2cc(S(C)(=O)=O)c3ncc(Cl)cc3c2)c1` [Example 67, N-((6-amino-2,4-dimethylpyridin-3-yl)methyl)-2-((3-chloro-8-(methylsulfonyl)quinolin-6-yl)methyl)isonicotinamide], ≤ 0.1 µM.
For `CS(=O)(=O)c1cc(Cc2cc(C(=O)NCc3cc4c(Cl)c[nH]c4cc3F)ccn2)cc2cc(Cl)cnc12` [Example 68, N-((3-chloro-6-fluoro-1H-indol-5-yl)methyl)-2-((3-chloro-8-(methylsulfonyl)quinolin-6-yl)methyl)isonicotinamide] the value was ≤ 0.1 µM.
Under `Cc1nc(N)ccc1CNC(=O)c1ccnc(Cc2cc(S(C)(=O)=O)c3ncc(Cl)cc3c2)c1` [Example 69, N-((6-amino-2-methylpyridin-3-yl)methyl)-2-((3-chloro-8-(methylsulfonyl)quinolin-6-yl)methyl)isonicotinamide] stands ≤ 0.1 µM; under `Cc1cnc2c(C#N)cc(Cc3cc(C(=O)NCc4c(C)cc(N)nc4C)ccn3)cc2c1` [Example 70, N-((6-amino-2,4-dimethylpyridin-3-yl)methyl)-2-((8-cyano-3-methylquinolin-6-yl)methyl)isonicotinamide], ≤ 0.1 µM; under `Cc1cnc2c(C#N)cc(Cc3cc(C(=O)NCc4ccc5c(N)nccc5c4)ccn3)cc2c1` [Example 71, N-((1-aminoisoquinolin-6-yl)methyl)-2-((8-cyano-3-methylquinolin-6-yl)methyl)isonicotinamide], ≤ 0.1 µM.
`Cc1cnc2c(C#N)cc(Cc3cc(C(=O)NCc4cnc5[nH]cc(Cl)c5c4)ccn3)cc2c1` [Example 73, N-((3-chloro-1H-pyrrolo[2,3-b]pyridin-5-yl)methyl)-2-((8-cyano-3-methylquinolin-6-yl)methyl)isonicotinamide]: the EC50 lay in the range of 0.1 to 1 µM.
Under `Cc1cnc2c(C(N)=O)cc(Cc3cc(C(=O)NCc4c(C)cc(N)nc4C)ccn3)cc2c1` [Example 77, 6-((4-(((6-amino-2,4-dimethylpyridin-3-yl)methyl)carbamoyl)pyridin-2-yl)methyl)-3-methylquinoline-8-carboxamide] stands ≤ 0.1 µM; under `Cc1cnc2c(C(N)=O)cc(Cc3cc(C(=O)NCc4cc5c(Cl)c[nH]c5cc4F)ccn3)cc2c1` [Example 78, 6-((4-(((3-chloro-6-fluoro-1H-indol-5-yl)methyl)carbamoyl)pyridin-2-yl)methyl)-3-methylquinoline-8-carboxamide], ≤ 0.1 µM; under `Cc1cnc2c(C(N)=O)cc(Cc3cc(C(=O)NCc4ccc5c(N)nccc5c4)ccn3)cc2c1` [Example 79, 6-((4-(((1-aminoisoquinolin-6-yl)methyl)carbamoyl)pyridin-2-yl)methyl)-3-methylquinoline-8-carboxamide], ≤ 0.1 µM.
Under `Cc1cnc2c(C(N)=O)cc(Cc3cc(C(=O)NCc4cnc5[nH]cc(Cl)c5c4)ccn3)cc2c1` [Example 80, 6-((4-(((3-chloro-1H-pyrrolo[2,3-b]pyridin-5-yl)methyl)carbamoyl)pyridin-2-yl)methyl)-3-methylquinoline-8-carboxamide] stands ≤ 0.1 µM.
The compound `Cc1cnc2c(C(N)=O)cc(Cc3cc(C(=O)NCc4cc5cc[nH]c5cc4F)ccn3)cc2c1` [Example 83, 6-((4-(((6-fluoro-1H-indol-5-yl)methyl)carbamoyl)pyridin-2-yl)methyl)-3-methylquinoline-8-carboxamide] returned an EC50 of 0.1 to 1 µM.
As for `Cc1cnc2c(C(=O)O)cc(Cc3cc(C(=O)NCc4c(C)cc(N)nc4C)ccn3)cc2c1` [Example 84, 6-((4-(((6-amino-2,4-dimethylpyridin-3-yl)methyl)carbamoyl)pyridin-2-yl)methyl)-3-methylquinoline-8-carboxylic acid], the EC50 was ≤ 0.1 µM.
For `Cc1cc(N)nc(C)c1CNC(=O)c1ccnc(Cc2cc(F)c3ncc(Cl)cc3c2)c1` [Example 89, N-(6-amino-2,4-dimethyl-pyridin-3-ylmethyl)-2-(3-chloro-8-fluoro-quinolin-6-ylmethyl)-isonicotinamide] the value was ≤ 0.1 µM; for `Cc1nc(N)ccc1CNC(=O)c1ccnc(Cc2cc(F)c3ncc(Cl)cc3c2)c1` [Example 91, N-(6-amino-2-methyl-pyridin-3-ylmethyl)-2-(3-chloro-8-fluoro-quinolin-6-ylmethyl)-isonicotinamide], ≤ 0.1 µM.
For `COC(=O)c1cc(Cc2cc(C(=O)NCc3c(C)cc(N)nc3C)ccn2)cc2cc(Cl)cnc12` [Example 92, methyl 6-((4-(((6-amino-2,4-dimethylpyridin-3-yl)methyl)carbamoyl)pyridin-2-yl)methyl)-3-chloroquinoline-8-carboxylate] the value was ≤ 0.1 µM.
